Tested on: Saccharomyces cerevisiae ABC16-Green Monster
Assay: growth inhibition at single dose (up to 150 µM), below the 70% cut-off for dose-response; higher = more potent
Conditions: 18 h; 30 °C; YPD
How it was run: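 Drug-sensitive S. cerevisiae ABC16-Green Monster cells were grown overnight in YPD at 30 °C and diluted to log phase (OD600 0.1–0.2). Each library compound was added at one dose of 150 µM to 200 µl culture per well in 96-well plates, in biological duplicates, with untreated cultures alongside. OD600 was read at 0 h and after 18 h at 30 °C. The value is percent growth inhibition; compounds below 70% in both replicates were not taken to dose-response.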

Compound	growth inhibition at single dose [%]
CCOc1cc2c(cc1OCC)C(c1cc(Cl)ccc1O)NCC2 (centres undefined)	< 70
c1ccc(-c2ccc(-c3nc4ccccc4[nH]3)cc2)cc1	< 70
CCN(CC)CCn1c(=N)n(CC(O)c2ccc(Cl)c(Cl)c2)c2ccccc21 (centres undefined)	< 70
C/N=c1\scc(-c2ccccc2OC)n1/N=C/c1ccc[nH]1	< 70
CCCCS(=O)(=O)Nc1ccc2cnn(C)c2c1	< 70
O/N=C1/c2ccccc2-c2nnc(-c3cccc(OC(F)(F)F)c3)cc21	< 70
CCOC(=O)C1CCN(C(=O)CN2C(=O)c3ccccc3C2c2c[nH]c3ccccc23)CC1 (centres undefined)	< 70
CCOc1ccccc1NC(=O)/C=C/c1nnc2c3ccccc3cnn12	< 70
Cc1ccc(Cn2ccs/c2=N/C(=O)c2cc3c(s2)CCCCC3)cc1	< 70
COc1ccccc1N1CCN(c2nc(=O)c3c([nH]2)CCC3)CC1	< 70
Cc1cc(Nc2ccc(C(F)(F)F)cc2)n2ccnc2n1	< 70
COc1ccc(C)c2sc(N(Cc3cccnc3)C(=O)c3ccc(C#N)cc3)nc12	< 70
COc1ccc(Nc2ccccc2NC(=O)c2ccc(O)nc2)cc1	< 70
CCOC(=O)c1nn(CCc2ccccc2)c2c1CN(C(=O)c1cc(C)n[nH]1)CC2	< 70
Oc1ccccc1CNCC12CC3CC(CC(C3)C1)C2	< 70
COc1ccc(C(=N)N)cc1-c1cn(-c2ccc(C(=N)N)cc2)nn1	< 70
CNC(=O)CNc1nc(-c2ccccn2)nc2scc(-c3ccccc3)c12	< 70
N=C(N)c1ccc(-c2cc(-c3ccccc3)on2)cc1	< 70
COc1ccc2c(=O)c(C(=O)N(C)Cc3ccc(F)c(F)c3)c[nH]c2c1	< 70
CCCn1nc(C(=O)NCCc2ccc(-n3cccn3)cc2)c2ccccc2c1=O	< 70
c1ccc(Nc2nc(-c3ccc4c(c3)OCCO4)cs2)nc1	< 70
CNc1snc(C)c1C(=O)Nc1ccc(OC)c(Cc2ccccc2)c1	< 70
O=C(NC(c1ccccc1)c1ccc2cccnc2c1O)c1ccccc1 (centres undefined)	< 70
Cc1ccc(N2C(=O)C3C(C2=O)C2(c4ccccc4)C(=O)C3(c3ccccc3)C(c3ccccc3)=C2c2ccccc2)cc1 (centres undefined)	< 70

Compound	growth inhibition at single dose [%]
O=C(NCc1ccco1)N1CCN(Cc2ccc(Cl)s2)CC1	< 70
CC(=O)Nc1ccc(NC(=O)c2cc(-c3cc(Cl)ccc3O)[nH]n2)cc1	< 70
O=C1C=C/C(=N\Nc2ccc3ccccc3c2)c2cccnc21	< 70
O=C(Nc1nc(CN2CCOCC2)cs1)c1ccc(-c2ccccc2)cc1	< 70
N#Cc1nc(-c2ccccc2F)oc1NCCc1ccccc1	< 70
Cc1ccc(Nc2nc(-c3ccccn3)cs2)cc1	< 70
Cc1[nH]c2ccc(F)cc2c(=O)c1I	< 70
O=C(NC1CCN(Cc2ccccc2)CC1)c1cc(-c2cccnc2)nc2ccc(Cl)cc12	< 70
CNc1snc(C)c1C(=O)OCc1csc(-c2ccccc2)n1	< 70
CC(C)Cn1c2c(c(O)c(C(=O)Nc3ncccc3O)c1=O)CCCC2	< 70
COc1ccc(C2NCCc3c2[nH]c2ccccc32)cc1CN1CCN(c2ccc(F)cc2)CC1 (centres undefined)	< 70
O=C(NCC(c1ccsc1)N1CCCCCC1)c1ccc(C(F)(F)F)cc1 (centres undefined)	< 70
c1ccc2c(c1)CN(CC1CC1)CC1(CCN(Cc3c[nH]c4cnccc34)CC1)O2	< 70
COc1ccc(-c2cc(=O)oc3c4c(ccc23)OCN(Cc2ccc(F)cc2)C4)cc1	< 70
COc1ccc(CCN2C(=O)c3[nH]nc(-c4cc(Cl)c(C)cc4O)c3C2c2ccccc2F)cc1 (centres undefined)	< 70
FC(F)(F)c1ccc(Nc2nnnc3ccccc23)cc1	< 70
CC1CN(C(=O)c2ccc(S(=O)(=O)Nc3ccccc3F)cc2)CC(C)O1 (centres undefined)	< 70
CCOc1ccc(-c2nc(NC(=O)c3cccc(S(C)(=O)=O)c3)sc2C)cc1	< 70
CC(C)(C)c1ccc(C(=O)NCCOc2ccccc2F)cc1	< 70
O=C(Nc1ccc(Oc2cc(C(F)(F)F)cc(C(F)(F)F)c2)cc1)Nc1ccc(OC(F)(F)F)cc1	< 70
COc1cncc(-c2cncc(N3CCN(c4ccncc4)CC3)n2)c1	< 70
Cc1cc2nc(NC(=O)C(C)(C)C)nc(Cl)c2n1Cc1ccc(Cl)cc1	< 70
CCCNC(=O)N1CCC2(CC1)CC(=O)c1cc(C)ccc1O2	< 70
CC1CC(C)C[N+](=C2C=C(N3CCCC3)CC(C)(C)C2)C1 (centres undefined)	< 70

Compound	growth inhibition at single dose [%]
O=C(NCc1cc(Cl)cc(Cl)c1)c1c(C(F)(F)F)nc2ccccn12	< 70
Cn1c(N)c(C(=O)COC(=O)C2(c3ccc(Cl)cc3)CCCC2)c(=O)n(C)c1=O	< 70
Cc1ccc(NC(=O)c2cc3c(s2)CCCCCC3)nc1	< 70
CN(C)c1ccc(C=Cc2nc(=O)c3ccccc3o2)cc1	< 70
COc1ccccc1CNC(=O)c1cc(C2CC2)nc2c1cnn2C(C)C	< 70
CN1c2ccccc2N(C)C1c1ccc2c(c1)OCO2	< 70
OC1CCCCC1C1(NC(=S)Nc2ccccc2)CCCCC1 (centres undefined)	< 70
Cn1c(Oc2cccc3c2OC(C)(C)C3)c(C#N)c(=O)n(C)c1=O	< 70
O=C(Nc1nnc(-c2ccc(Cl)s2)o1)c1ccc(Cl)s1	< 70
CC1CCCCN1CCCNC(=O)c1ccc2c(c1)sc1nc(-c3ccc(F)cc3)cn12 (centres undefined)	< 70
CCOC(=O)c1c(C)nn(-c2ccc(NC(=O)c3cccs3)cc2)c1C	< 70
Nn1c(SCC(=O)c2c[nH]c3ccccc23)nnc1C(F)(F)F	< 70
CCCN(CCC)CC(O)COc1ccccc1C(=O)Nc1ccccc1 (centres undefined)	< 70
CN1CCN(c2nc(Nc3ccc(O)cc3)nc3ccccc23)CC1	< 70
Cc1ccc(C(=O)COC(=O)Cc2n[nH]c(=O)c3ccccc23)s1	< 70
c1ccc(SCc2ccc(-c3nc4ccccc4s3)cc2)nc1	< 70
Fc1ccccc1-n1cnnc1SC(c1ccccc1)c1ccccc1	< 70
COc1ccc(OC)c(NCc2ccc3nc(N)nc(N)c3c2Cl)c1	< 70
COc1ccc2c(c1)CCCC21NC(=O)N(Cc2nc3ccccc3s2)C1=O (centres undefined)	< 70
Oc1ccc(-c2nc(-c3ccc4oc5ccc(-c6[nH]c(-c7ccc(O)cc7)nc6-c6ccccc6)cc5c4c3)c(-c3ccccc3)[nH]2)cc1	< 70
CCOc1cc2c(cc1OCC)C(c1cc(C)c(O)c(C)c1)NCC2 (centres undefined)	< 70
Cc1cc(=O)n2nc(CSc3nc4ccc(Cl)cc4c(=O)n3CC(C)C)sc2n1	< 70
O=C(Nc1nc2cc3c(cc2s1)OCCO3)c1cccc2c[nH]nc12	< 70
Cc1cc(C(=O)COC(=O)c2ccccc2C(F)(F)F)c(C)n1Cc1ccccc1Cl	< 70

Compound	growth inhibition at single dose [%]
CCn1ncc2c(NC3CCOCC3)c(CNC(=O)c3ccnn3C)c(C)nc21	< 70
CCOc1ccc(-c2nc(NC(=O)CS(=O)(=O)c3ccccc3)sc2C)cc1	< 70
N#C/C(=N\Nc1cccc(Cl)c1)C(=O)c1cc(-c2ccccc2)c(C(F)(F)F)s1	< 70
Clc1cccc(CO[C@H]2CCc3ccccc3[C@@H]2n2ccnn2)c1	< 70
O=C(Nc1ncc(Cc2ccc(Br)cc2)s1)c1ccc2n[nH]nc2c1	< 70
C=CCn1c(SCc2c(C)noc2C)nc2scc(C3CC3)c2c1=O	< 70
CCC(Sc1nc2ccccc2o1)C(=O)Nc1nccs1 (centres undefined)	< 70
CCOC(=O)c1cc(-c2csc(Nc3c(C)cc(C)cc3C)n2)on1	< 70
COc1ccc(-c2nc(N3CCN(C(=O)C4CCCCC4)CC3)c3c4c(sc3n2)CCCC4)cc1	< 70
COc1ccc(/C(C#N)=C/c2ccccc2OC)cc1	< 70
O=C(NCc1ccoc1)N1CCN(Cc2ccc3c(c2)OCO3)CC1	< 70
Cc1ccc(Nc2nc(NCCO)c3ccccc3n2)cc1C	< 70
COc1ccccc1N1CCN(C(CNS(=O)(=O)c2ccc(Cl)cc2)c2cccnc2)CC1 (centres undefined)	< 70
CCOC(=O)c1cnc2ccc(CC)cc2c1O	< 70
Nc1ccn(C2O[C@H](CO)[C@@H](O)[C@H]2O)c(=O)n1 (some centres undefined)	< 70
c1ccc2sc(-c3nc4ccccc4s3)nc2c1	< 70
CC(Nc1ccc(Oc2cccc(F)c2)cc1)C(=O)N1CCNC1=O (centres undefined)	< 70
CC(Oc1cccc(Cl)c1)C(=O)Nc1ccc2oc(-c3ccncc3)nc2c1 (centres undefined)	< 70
N#Cc1ccc(-c2ccc(OCC(N)=O)cc2)cc1	< 70
CC(=O)c1c(C)[nH]c(C(=O)Nc2ccc(Oc3ccccc3Cl)cc2)c1C	< 70
CCCCCCc1cc2cc(-c3nc4ccccc4[nH]3)c(=Nc3ccccc3C)oc2cc1O	< 70
COC(=O)c1c(NC(=O)c2cc3ccccc3oc2=O)sc2c1CCN(Cc1ccccc1)C2	< 70

From the supplement of paper PMC8837787
